Reference: patent US9714234B2, “Carbazole carboxamide compounds” (Bristol-Myers Squibb Company, priority 2013, dated 2017)

How the values were obtained:
Jak2 tyrosine kinase = Jak2 tyrosine kinase (Homo sapiens (Human), UniProt O60674); experiment: Jak2 Tyrosine Kinase Assay; assay type: biochemical; conditions: for IC50: Jak2 1 nM, ATP 30 μM; for Ratio of Jak2/Btk IC50 values: selectivity for Btk over Jak2, larger value = more selective for Btk
[1] = tested on: CD69 expression on B cells in human whole blood; experiment: Whole Blood Assays of BCR-Stimulated CD69 Expression on B Cells; assay type: cell-based; conditions: anti-human IgM + IL-4 stimulation, 18 h at 37° C.
human recombinant Btk = human recombinant Btk (Homo sapiens (Human), UniProt Q06187); experiment: Human Recombinant Btk Enzyme Assay; assay type: biochemical; conditions: human recombinant Btk 1 nM, ATP 20 μM
Chain of human recombinant Btk (Q06187 whole entry): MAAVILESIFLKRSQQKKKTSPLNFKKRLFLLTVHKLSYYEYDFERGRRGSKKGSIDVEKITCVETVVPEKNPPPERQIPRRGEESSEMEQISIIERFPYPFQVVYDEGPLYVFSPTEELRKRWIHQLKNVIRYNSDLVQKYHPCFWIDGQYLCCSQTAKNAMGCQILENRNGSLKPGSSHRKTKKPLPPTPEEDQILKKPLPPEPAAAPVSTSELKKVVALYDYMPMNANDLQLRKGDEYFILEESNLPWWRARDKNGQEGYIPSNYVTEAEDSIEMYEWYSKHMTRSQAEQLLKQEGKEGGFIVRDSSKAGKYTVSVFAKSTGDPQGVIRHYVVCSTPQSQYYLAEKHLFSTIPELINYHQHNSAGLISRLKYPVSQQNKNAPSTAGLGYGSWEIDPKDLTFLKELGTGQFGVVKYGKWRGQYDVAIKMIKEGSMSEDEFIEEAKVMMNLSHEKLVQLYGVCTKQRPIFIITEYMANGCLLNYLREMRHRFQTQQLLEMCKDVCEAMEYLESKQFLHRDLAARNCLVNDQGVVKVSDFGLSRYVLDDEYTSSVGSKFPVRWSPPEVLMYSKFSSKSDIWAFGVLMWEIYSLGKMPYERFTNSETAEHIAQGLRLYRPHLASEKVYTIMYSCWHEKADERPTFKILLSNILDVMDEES

Chain of Jak2 tyrosine kinase (O60674 whole entry): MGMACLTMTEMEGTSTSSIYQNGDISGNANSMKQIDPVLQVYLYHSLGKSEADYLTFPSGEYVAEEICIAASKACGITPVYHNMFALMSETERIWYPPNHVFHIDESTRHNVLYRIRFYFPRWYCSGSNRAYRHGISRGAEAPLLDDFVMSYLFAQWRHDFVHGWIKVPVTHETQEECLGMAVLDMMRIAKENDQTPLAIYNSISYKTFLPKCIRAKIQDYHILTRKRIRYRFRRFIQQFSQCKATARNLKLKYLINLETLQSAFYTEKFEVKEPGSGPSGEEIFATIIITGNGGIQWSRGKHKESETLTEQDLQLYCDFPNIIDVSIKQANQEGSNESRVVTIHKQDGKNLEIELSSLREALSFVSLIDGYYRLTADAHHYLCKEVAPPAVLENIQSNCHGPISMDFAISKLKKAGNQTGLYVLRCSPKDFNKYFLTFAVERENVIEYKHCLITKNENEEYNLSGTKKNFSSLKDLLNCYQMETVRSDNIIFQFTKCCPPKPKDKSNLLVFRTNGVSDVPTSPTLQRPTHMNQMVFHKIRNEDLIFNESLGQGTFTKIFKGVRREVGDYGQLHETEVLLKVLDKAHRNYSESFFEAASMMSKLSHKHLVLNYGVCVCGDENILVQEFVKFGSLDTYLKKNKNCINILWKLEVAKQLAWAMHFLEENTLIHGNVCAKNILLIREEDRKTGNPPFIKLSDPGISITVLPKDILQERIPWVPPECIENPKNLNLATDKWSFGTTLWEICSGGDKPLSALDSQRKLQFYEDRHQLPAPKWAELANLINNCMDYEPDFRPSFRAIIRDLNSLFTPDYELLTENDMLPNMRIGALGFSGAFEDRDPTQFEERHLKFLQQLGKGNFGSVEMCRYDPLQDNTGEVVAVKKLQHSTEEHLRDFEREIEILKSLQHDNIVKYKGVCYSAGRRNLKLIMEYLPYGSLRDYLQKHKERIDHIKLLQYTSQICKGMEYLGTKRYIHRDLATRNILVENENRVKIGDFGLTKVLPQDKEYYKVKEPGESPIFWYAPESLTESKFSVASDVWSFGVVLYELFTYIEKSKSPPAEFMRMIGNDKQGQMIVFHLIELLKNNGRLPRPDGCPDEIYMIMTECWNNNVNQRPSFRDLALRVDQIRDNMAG

IC50 (Jak2 tyrosine kinase)	Ratio of Jak2/Btk IC50 values (Jak2 tyrosine kinase)	IC50 ([1]; B-cell)	IC50 (human recombinant Btk)	IC50 [1]	IC50 ([1]; Homo sapiens, B-cell, 18 h)	Structure (SMILES)
226 nM	540	250 nM	0.4 nM			Cc1c(-c2ccc(C(N)=O)c3[nH]c4c(F)c(C(C)(C)O)ccc4c23)cccc1-n1c(=O)c2cccc(F)c2n(C)c1=O [Example 33, 8-fluoro-4-(3-(8-fluoro-1-methyl-2,4-dioxo-1,2-dihydroquinazolin-3(4H)-yl)-2-methylphenyl)-7-(2-hydroxypropan-2-yl)-9H-carbazole-1-carboxamide]
800 nM	530	87 nM	1.5 nM			Cc1c(-c2ccc(C(N)=O)c3[nH]c4cc(CO)ccc4c23)cccc1-n1c(=O)cc2c(F)cccn2c1=O [Example 28, 4-(3-(5-fluoro-1,3-dioxo-1H-pyrido[1,2-c]pyrimidin-2(3H)-yl)-2-methylphenyl)-7-(hydroxymethyl)-9H-carbazole-1-carboxamide]
430 nM	360	130 nM	1.2 nM			CC(=O)NCc1ccc2c(c1)[nH]c1c(C(N)=O)ccc(-c3cccc(-n4c(=O)cc5c(F)cccn5c4=O)c3C)c12 [Example 30, 7-(acetamidomethyl)-4-(3-(5-fluoro-1,3-dioxo-1H-pyrido[1,2-c]pyrimidin-2(3H)-yl)-2-methylphenyl)-9H-carbazole-1-carboxamide]
> 2000 nM	>1700	98 nM	1.2 nM			[2H]C([2H])([2H])n1c(=O)n(-c2cccc(-c3ccc(C(N)=O)c4[nH]c5cc(C(C)(C)O)cc(C)c5c34)c2C)c(=O)c2cccc(F)c21 (atropisomer, axis not shown) [Example 27, 4-(3-(S)-(8-Fluoro-1-methyl(d3)-2,4-dioxo-1,2-dihydroquinazolin-3(4H)-yl)-2-methylphenyl)-7-(2-hydroxypropan-2-yl)-5-methyl-9H-carbazole-1-carboxamide]

The remaining lines, values behind:

Structure (SMILES)	IC50 (Jak2 tyrosine kinase)	Ratio of Jak2/Btk IC50 values (Jak2 tyrosine kinase)	IC50 ([1]; B-cell)	IC50 (human recombinant Btk)	IC50 [1]	IC50 ([1]; Homo sapiens, B-cell, 18 h)
Cc1c(-c2ccc(C(N)=O)c3[nH]c4cc(C(C)(C)O)ccc4c23)cccc1-n1c(=O)cc2c(F)cccn2c1=O [Example 23, 4-(3-(5-Fluoro-1,3-dioxo-1H-pyrido[1,2-c]pyrimidin-2(3H)-yl)-2-methylphenyl)-7-(2-hydroxypropan-2-yl)-9H-carbazole-1-carboxamide]	1000 nM	830		1.2 nM	79 nM	
COc1cccc2c(=O)n(-c3cccc(-c4ccc(C(N)=O)c5[nH]c6cc(C(C)(C)O)ccc6c45)c3C)c(=O)n(C)c12 [Example 7, 7-(2-Hydroxypropan-2-yl)-4-(3-(8-methoxy-1-methyl-2,4-dioxo-1,2-dihydroquinazolin-3(4H)-yl)-2-methylphenyl)-9H-carbazole-1-carboxamide]	1300 nM	760	220 nM	1.7 nM		
COc1ccn2c(=O)n(-c3cccc(-c4ccc(C(N)=O)c5[nH]c6cc(C(C)(C)O)ccc6c45)c3C)c(=O)cc2c1 [Example 11, 7-(2-Hydroxypropan-2-yl)-4-(3-(6-methoxy-1,3-dioxo-1H-pyrido[1,2-c]pyrimidin-2(3H)-yl)-2-methylphenyl)-9H-carbazole-1-carboxamide]	1000 nM	1600	140 nM	0.63 nM		
Cc1c(-c2ccc(C(N)=O)c3[nH]c4cc(C(C)(C)O)ccc4c23)cccc1-n1c(=O)cc2c(F)cccn2c1=O [Example 21, 4-(3-(5-Fluoro-1,3-dioxo-1H-pyrido[1,2-c]pyrimidin-2(3H)-yl)-2-methylphenyl)-7-(2-hydroxypropan-2-yl)-9H-carbazole-1-carboxamide]	960 nM	1000		0.93 nM		75 nM
Cn1c(=O)n(-c2cccc(-c3ccc(C(N)=O)c4[nH]c5cc(C(C)(C)O)ccc5c34)c2Cl)c(=O)c2ccccc21 [Example 6, 4-(2-Chloro-3-(1-methyl-2,4-dioxo-1,2-dihydroquinazolin-3(4H)-yl)phenyl)-7-(2-hydroxypropan-2-yl)-9H-carbazole-1-carboxamide]	1800 nM	340	150 nM	5.3 nM		
COc1ccc2cc(=O)n(-c3cccc(-c4ccc(C(N)=O)c5[nH]c6cc(C(C)(C)O)ccc6c45)c3C)c(=O)n2c1 [Example 10, 7-(2-Hydroxypropan-2-yl)-4-(3-(7-methoxy-1,3-dioxo-1H-pyrido[1,2-c]pyrimidin-2(3H)-yl)-2-methylphenyl)-9H-carbazole-1-carboxamide]	1100 nM	790	120 nM	1.4 nM		
